# Patent publication US20090099094A1, “Use of Somatostatin Agonists to Treat Medullary Thyroid Carcinoma” (priority 2007, published 2009)
# Square brackets hold non-standard residues; d marks the D form. Peptide text beside a SMILES is read from it. Tic = O=C(O)[C@@H]1Cc2ccccc2CN1; Abu = CC[C@H](N)C(=O)O
# What was measured:
# SSTR1 = SSTR1 (Homo sapiens, UniProt P30872); experiment: SSTR receptor binding affinity (Ki), SSTR1; details: read-out: SSTR Specificity Ki SSTR1
# SSTR2 = SSTR2 (Homo sapiens, UniProt P30874); experiment: SSTR receptor binding affinity (Ki), SSTR2; details: read-out: SSTR Specificity Ki SSTR2
# SSTR3 = SSTR3 (Homo sapiens, UniProt P32745); experiment: SSTR receptor binding affinity (Ki), SSTR3; details: read-out: SSTR Specificity Ki SSTR3
# SSTR5 = SSTR5 (Homo sapiens, UniProt P35346); experiment: SSTR receptor binding affinity (Ki), SSTR5; details: read-out: SSTR Specificity Ki SSTR5
# [1] = test system: medullary thyroid carcinoma primary cultures; experiment: Calcitonin secretion by MTC primary cultures (IRMA); type: cell-based, human; details: 10^−8 M, six hours
# Description: Primary cultured cells from 18 selected MTC samples were incubated in ninety six well plates for six hours with each SSTR agonist at 10^−8 M. Control cells were treated with vehicle solution. Calcitonin levels in the conditioned medium were measured by immunoradiometric assay (IRMA) among eight replicates in the conditioned medium from treated and untreated (control) primary cultured cells. […] Data are expressed as the mean±SE percent hormone secretion inhibition vs. untreated control cells. *P<0.05 and **P<0.01 vs. control.
# (§1) Tissue samples were surgically removed in accordance with the guidelines of the local comnmittees on human research. Thyroid tissue samples were obtained under sterile conditions and immediately minced in RPMI 1640 tissue culture medium. Tissues were incubated with 0.25% trypsin overnight at 4° C. and then dissociated using 0.35% collagenase (Sigma, Milano, ITALY) and 1% trypsin at 37° C. for sixty minutes. Cell suspensions were filtered through double layers of gaus(e and washed twice with serum-free F-12 Ham's Nutrient Modified Medium (F-12; Euroclone Ltd, Wetherby, UNITED KINGDOM). Tumor cells were re-suspended in F-12 with 10% fetal bovine serum and antibiotics, seeded in ninety-six well culture plates (˜2×10^4 cells/well) and incubated at 37° C. in a humidified atmosphere of 5% CO2 and 95% air according to known procedures (Zatelli, M. C. et al., Endocrinology, 2005, 146:2692-8). Approximately twenty-four hours later, the prepared cells were treated with the selected somatostatin agonist and were monitored for hormone secretion and overall viability. Informed consent of the patients was obtained for disclosing clinical investigation and performing the in vitro study.
# Calcitonin levels were measured in a conditioned medium from treated and untreated primary cultured cells with the calcitonin-U.S.-IRMA® kit (Biosource Europe, Nivelles, BELGIUM) after a six hour treatment with […] of the selected somatostatin analogs. The intra- and inter-assay variation coefficients were 1.9-2.7% and 1.9-3.3%, respectively. The detection limit was 0.8 pg/ml. Hormone assays were performed in duplicate of conditioned medium from treated cells. Results were obtained by determining the mean value among eight replicates.
# In order to investigate the effects of somatostatin analogs on hormone secretion, calcitonin and CgA levels were measured in conditioned media collected from primary cultures derived from the selected eighteen medullary thyroid carcinoma treated with or without each somatostatin analog at 10^−8M for six hours.
# According to this criterion, […] as “responders” (group A: primary cultures #3, #5, #6, #7, #11, #12, #13, #14, #15, #16) and nine as “non responders” (group B: primary cultures #1, #2, #4, #8, #9, #10, #17, #18).
# [2] = test system: medullary thyroid carcinoma primary cultures; experiment: Cell viability of MTC primary cultures (MTT); type: cell-based, human; details: 10^−8 M, forty-eight hours; for cell viability, change vs. control (signed, negative = reduced): group B (lanreotide non-responsive) mean
# Description: Primary cultured cells from 18 selected MTC samples were incubated in ninety six well plates for forty eight hours with each SSTR agonist at 10^−8 M. Control cells were treated with vehicle solution. Cell viability was measured by a colorimetric method among eight replicates from treated and untreated (control) primary cultured cells. […] Data are expressed as the mean±SE percent cell viability reduction vs. untreated control cells. *P<0.05, and **P<0.01 vs. control.
# as §1
# The effects of the tested somatostatin analogs on medullary thyroid carcinoma primary culture cell viability were assessed with a Cell Proliferation Kit I MTT® (Roche Diagnostics GmbH, Mannheim, GERMANY) which employs a colorimetric method for determining the number of viable cells in proliferation assays. Primary cultured cells were plated in ninety-six multiwell plates (2×10^4 cells/well) and incubated for forty-eight hours in a medium supplemented with 10% fetal bovine serum in the presence or absence of each somatostatin analog at 10^−8M. Treatments were renewed after the first twenty-four hours of incubation.
# In order to investigate the effects of somatostatin analogs on medullary thyroid carcinoma cell viability, an MTT assay was performed in primary cultures derived from the eighteen selected medullary thyroid carcinoma samples, treated with or without each somatostatin analog at […] for forty-eight hours. Percent cell viability reduction compared to a control in each primary culture under treatment with each somatostatin analog is reported in Table 6.
# SSTR4 = SSTR4 (Homo sapiens, UniProt P31391); experiment: SSTR receptor binding affinity (Ki), SSTR4; details: read-out: SSTR Specificity Ki SSTR4
# [3] = MTC primary culture #1 (non responder)
# [4] = MTC primary culture #2 (non responder)
# [5] = MTC primary culture #3 (responder)
# [6] = MTC primary culture #4 (non responder)
# [7] = MTC primary culture #5 (responder)
# [8] = MTC primary culture #6 (responder)
# [9] = MTC primary culture #7 (responder)
# [10] = MTC primary culture #8 (non responder)
# [11] = MTC primary culture #9 (non responder)
# [12] = MTC primary culture #10 (non responder)
# [13] = MTC primary culture #11 (responder)
# [14] = MTC primary culture #12 (responder)
# [15] = MTC primary culture #13 (responder)
# [16] = MTC primary culture #14 (responder)
# [17] = MTC primary culture #15 (responder)
# [18] = MTC primary culture #16 (responder)
# [19] = MTC primary culture #17 (non responder)
# [20] = MTC primary culture #18 (non responder)
# [21] = group A (lanreotide responsive) mean
# [22] = group B (lanreotide non-responsive) mean
# SSTR5, sequence (P35346 whole entry): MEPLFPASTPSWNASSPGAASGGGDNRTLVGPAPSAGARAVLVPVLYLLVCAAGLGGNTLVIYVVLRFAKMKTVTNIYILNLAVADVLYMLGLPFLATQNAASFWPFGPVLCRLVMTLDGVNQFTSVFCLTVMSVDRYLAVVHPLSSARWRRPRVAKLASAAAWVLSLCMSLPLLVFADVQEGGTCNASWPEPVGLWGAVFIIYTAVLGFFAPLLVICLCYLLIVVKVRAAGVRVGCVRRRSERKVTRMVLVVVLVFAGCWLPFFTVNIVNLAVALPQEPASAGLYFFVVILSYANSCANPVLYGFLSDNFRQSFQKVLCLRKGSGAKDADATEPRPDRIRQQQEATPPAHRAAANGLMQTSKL
# SSTR3, sequence (P32745 whole entry): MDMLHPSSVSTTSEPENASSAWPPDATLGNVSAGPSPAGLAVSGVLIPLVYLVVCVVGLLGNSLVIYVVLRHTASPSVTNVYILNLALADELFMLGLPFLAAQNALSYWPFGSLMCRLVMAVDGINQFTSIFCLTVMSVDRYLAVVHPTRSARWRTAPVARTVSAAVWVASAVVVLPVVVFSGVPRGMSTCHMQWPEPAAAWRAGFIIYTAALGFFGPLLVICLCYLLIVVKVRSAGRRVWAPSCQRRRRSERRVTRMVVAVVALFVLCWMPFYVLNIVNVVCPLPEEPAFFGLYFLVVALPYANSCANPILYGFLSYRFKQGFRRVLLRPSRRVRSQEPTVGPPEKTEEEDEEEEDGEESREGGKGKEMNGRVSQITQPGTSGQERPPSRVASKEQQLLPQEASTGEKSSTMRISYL
# SSTR2, sequence (P30874 whole entry): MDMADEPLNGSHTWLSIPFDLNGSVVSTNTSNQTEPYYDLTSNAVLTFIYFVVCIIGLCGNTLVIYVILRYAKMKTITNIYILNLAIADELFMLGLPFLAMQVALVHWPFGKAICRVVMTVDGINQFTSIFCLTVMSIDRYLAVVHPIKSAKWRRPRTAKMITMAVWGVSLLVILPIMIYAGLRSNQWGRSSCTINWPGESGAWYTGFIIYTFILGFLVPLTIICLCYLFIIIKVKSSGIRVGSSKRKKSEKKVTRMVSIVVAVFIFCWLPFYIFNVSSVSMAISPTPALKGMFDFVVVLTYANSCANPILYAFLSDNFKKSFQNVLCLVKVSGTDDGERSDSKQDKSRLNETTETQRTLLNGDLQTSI
# SSTR1, sequence (P30872 whole entry): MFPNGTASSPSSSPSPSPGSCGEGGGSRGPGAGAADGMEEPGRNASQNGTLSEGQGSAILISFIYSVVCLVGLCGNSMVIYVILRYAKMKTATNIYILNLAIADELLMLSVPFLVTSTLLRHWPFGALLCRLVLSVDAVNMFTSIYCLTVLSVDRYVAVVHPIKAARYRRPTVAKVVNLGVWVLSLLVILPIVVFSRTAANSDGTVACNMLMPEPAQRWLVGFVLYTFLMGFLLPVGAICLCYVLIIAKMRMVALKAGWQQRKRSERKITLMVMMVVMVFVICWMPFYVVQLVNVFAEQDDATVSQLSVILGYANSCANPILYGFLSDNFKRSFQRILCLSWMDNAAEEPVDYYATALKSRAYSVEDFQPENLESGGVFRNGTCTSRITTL
# SSTR4, sequence (P31391 whole entry): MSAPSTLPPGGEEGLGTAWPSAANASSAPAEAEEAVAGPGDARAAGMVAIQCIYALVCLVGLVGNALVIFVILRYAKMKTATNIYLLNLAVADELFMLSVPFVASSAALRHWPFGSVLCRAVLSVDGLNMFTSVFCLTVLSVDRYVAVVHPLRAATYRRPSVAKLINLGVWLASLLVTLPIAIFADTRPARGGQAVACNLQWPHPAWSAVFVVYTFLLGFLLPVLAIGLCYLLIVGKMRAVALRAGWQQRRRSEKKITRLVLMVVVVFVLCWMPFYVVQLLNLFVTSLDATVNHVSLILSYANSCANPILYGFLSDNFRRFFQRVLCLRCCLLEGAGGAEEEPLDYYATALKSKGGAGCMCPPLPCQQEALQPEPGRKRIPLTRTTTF
smiles,measurement,setting,value
"C[C@@H](O)[C@H](NC(=O)[C@H](Cc1ccccc1)NC(=O)[C@@H](NC(=O)[C@H](CCCCN)NC(=O)[C@@H](Cc1c[nH]c2ccccc12)NC(=O)[C@H](Cc1c[nH]c2ccccc12)NC(=O)[C@H](Cc1ccccc1)NC(=O)[C@H](N)Cc1ccccc1)[C@@H](C)O)C(N)=O [Cmpd #3, D-Phe-Phe-Trp-D-Trp-Lys-Thr-Phe-Thr-NH2]",Ki,SSTR1,1150 nM
same,Ki,SSTR2,166 nM
same,Ki,SSTR3,1000 nM
same,Ki,SSTR5,2.4 nM
same,% CT secretion inhibition vs. control,[1]; [3],−16.6%
same,% CT secretion inhibition vs. control,[1]; [4],18.2%
same,% CT secretion inhibition vs. control,[1]; [5],−36.5%
same,% CT secretion inhibition vs. control,[1]; [6],5.3%
same,% CT secretion inhibition vs. control,[1]; [7],−17.5%
same,% CT secretion inhibition vs. control,[1]; [8],−25.8%
same,% CT secretion inhibition vs. control,[1]; [9],−34.6%
same,% CT secretion inhibition vs. control,[1]; [10],−7.5%
same,% CT secretion inhibition vs. control,[1]; [11],−1.6%
same,% CT secretion inhibition vs. control,[1]; [12],15.6%
same,% CT secretion inhibition vs. control,[1]; [13],−76.2%
same,% CT secretion inhibition vs. control,[1]; [14],−9.3%
same,% CT secretion inhibition vs. control,[1]; [15],−43.2%
same,% CT secretion inhibition vs. control,[1]; [16],9.5%
same,% CT secretion inhibition vs. control,[1]; [17],7.8%
same,% CT secretion inhibition vs. control,[1]; [18],−17.4%
same,% CT secretion inhibition vs. control,[1]; [19],7.4%
same,% CT secretion inhibition vs. control,[1]; [20],13.6%
same,calcitonin secretion reduced / inhibited by,[1]; group A (lanreotide responders) mean,28%
same,"calcitonin secretion, change vs. control (signed, negative = reduced)",[1]; [21],−28%
same,"calcitonin secretion, change vs. control (signed, negative = reduced)",[1]; [22],not reduced
same,% cell viability reduction vs. control,[2]; [3],30.8%
same,% cell viability reduction vs. control,[2]; [4],−72.5%
same,% cell viability reduction vs. control,[2]; [5],0.4%
same,% cell viability reduction vs. control,[2]; [6],4.8%
same,% cell viability reduction vs. control,[2]; [7],−5.3%
same,% cell viability reduction vs. control,[2]; [8],2.4%
same,% cell viability reduction vs. control,[2]; [9],4.2%
same,% cell viability reduction vs. control,[2]; [10],−0.3%
same,% cell viability reduction vs. control,[2]; [11],3.6%
same,% cell viability reduction vs. control,[2]; [12],2.3%
same,% cell viability reduction vs. control,[2]; [13],−1.0%
same,% cell viability reduction vs. control,[2]; [14],−11.3%
same,% cell viability reduction vs. control,[2]; [15],7.2%
same,% cell viability reduction vs. control,[2]; [16],6.0%
same,% cell viability reduction vs. control,[2]; [17],5.2%
same,% cell viability reduction vs. control,[2]; [18],−5.8%
same,% cell viability reduction vs. control,[2]; [19],−8.7%
same,% cell viability reduction vs. control,[2]; [20],−3.8%
same,"cell viability, change vs. control (signed, negative = reduced)",[2],neither affected
CCCN1C[C@H](CSCC(=O)NCCCC[C@@H](NC(=O)CSC[C@@H]2C[C@@H]3c4cccc5[nH]cc(c45)C[C@H]3N(CCC)C2)C(=O)N[C@H]2CSSC[C@@H](C(=O)N[C@H](C(N)=O)[C@@H](C)O)NC(=O)[C@H](CC)NC(=O)[C@H](CCCCN)NC(=O)[C@@H](Cc3c[nH]c4ccccc34)NC(=O)[C@H](Cc3ccc(O)cc3)NC2=O)C[C@@H]2c3cccc4[nH]cc(c34)C[C@H]21 [Dop2-D-Lys(Dop2)-c[Cys-Tyr-D-Trp-Lys-Abu-Cys]-Thr-NH2],Ki,SSTR5,41.5 nM
"CC[C@@H]1NC(=O)[C@H](CCCCN)NC(=O)[C@@H](Cc2c[nH]c3ccccc23)NC(=O)[C@H](Cc2ccc(O)cc2)NC(=O)[C@@H]2Cc3ccccc3CN2C(=O)[C@H](Cc2ccccc2)NC1=O [Cmpd #2, c[Tic-Tyr-D-Trp-Lys-Abu-Phe]] (cyclo([Tic]Y[dW]K[Abu]F))",Ki,SSTR1,1000 nM
same,Ki,SSTR2,0.34 nM
same,Ki,SSTR3,412 nM
same,Ki,SSTR4,1000 nM
same,Ki,SSTR5,214 nM
same,% CT secretion inhibition vs. control,[1]; [3],−6.1%
same,% CT secretion inhibition vs. control,[1]; [4],−4.3%
same,% CT secretion inhibition vs. control,[1]; [5],−36.0%
same,% CT secretion inhibition vs. control,[1]; [6],8.9%
same,% CT secretion inhibition vs. control,[1]; [7],−8.6%
same,% CT secretion inhibition vs. control,[1]; [8],−5.7%
same,% CT secretion inhibition vs. control,[1]; [9],−51.3%
same,% CT secretion inhibition vs. control,[1]; [10],−2.6%
same,% CT secretion inhibition vs. control,[1]; [11],6.7%
same,% CT secretion inhibition vs. control,[1]; [12],11.6%
same,% CT secretion inhibition vs. control,[1]; [13],10.3%
same,% CT secretion inhibition vs. control,[1]; [14],−12.4%
same,% CT secretion inhibition vs. control,[1]; [15],−48.6%
same,% CT secretion inhibition vs. control,[1]; [16],1.6%
same,% CT secretion inhibition vs. control,[1]; [17],−22.9%
same,% CT secretion inhibition vs. control,[1]; [18],−31.7%
same,% CT secretion inhibition vs. control,[1]; [19],−2.6%
same,% CT secretion inhibition vs. control,[1]; [20],−1.5%
same,"calcitonin secretion, change vs. control (signed, negative = reduced)",[1]; [21],−23%
same,"calcitonin secretion, change vs. control (signed, negative = reduced)",[1]; [22],not reduced
same,% cell viability reduction vs. control,[2]; [3],−5.0%
same,% cell viability reduction vs. control,[2]; [4],−56.4%
same,% cell viability reduction vs. control,[2]; [5],−3.2%
same,% cell viability reduction vs. control,[2]; [6],−17.9%
same,% cell viability reduction vs. control,[2]; [7],−8.6%
same,% cell viability reduction vs. control,[2]; [8],3.2%
same,% cell viability reduction vs. control,[2]; [9],54.4%
same,% cell viability reduction vs. control,[2]; [10],−15.3%
same,% cell viability reduction vs. control,[2]; [11],−8.8%
same,% cell viability reduction vs. control,[2]; [12],12.1%
same,% cell viability reduction vs. control,[2]; [13],−0.4%
same,% cell viability reduction vs. control,[2]; [14],15.8%
same,% cell viability reduction vs. control,[2]; [15],−5.3%
same,% cell viability reduction vs. control,[2]; [16],8.2%
same,% cell viability reduction vs. control,[2]; [17],5.6%
same,% cell viability reduction vs. control,[2]; [18],−3.0%
same,% cell viability reduction vs. control,[2]; [19],−10.3%
same,% cell viability reduction vs. control,[2]; [20],−20.6%
same,"cell viability, change vs. control (signed, negative = reduced)",[2],−13%
